Test results from patent US20240092936A1, “METHODS OF TREATING HER2 POSITIVE BREAST CANCER WITH TUCATINIB IN COMBINATION WITH CAPECITABINE AND TRASTUZUMAB” (Seagen Inc., priority 2019, published 2024).
Entries after “also recorded” stand apart in the source; their conditions may differ. Like-named read-outs stand apart in the source and are kept apart here.

Assays:
[1] = cited from earlier work
[2] = tested on: patients on tucatinib studies; assay: Safety observations in earlier tucatinib studies (e.g. ONT-380-005); type: in vivo, human; conditions: patients taking tucatinib alone or in combination
Source text: Trastuzumab and other HER2-targeted therapies were known to increase the risk of the development of asymptomatic and symptomatic declines in LVEF. […] Cardiac function was therefore monitored closely.
Monitoring of liver function tests was required for any patient taking tucatinib.
Patients with brain metastases were at risk for occurrence of AEs due to the presence of CNS lesions, progression of disease and toxicities potentially related to study treatment. On occasion, treatment of brain metastases with systemic or radiation therapy had been associated with localized edema thought to be due to treatment effect and not tumor progression. […] The patient's symptoms responded rapidly and completely to systemic corticosteroids. It was not known if this patient's symptoms were due to local progression or treatment-related toxicity. […] The patient was taken for surgical resection, and found to have no viable tumor. The resected lesion was thought to represent treatment-related necrosis.

[3] = Table 11, strong inhibitors or inducers of CYP3A4
[4] = Table 10, strong inhibitors and inducer of CYP2C8

## NC(=O)N1c2ccccc2C=Cc2ccccc21 [Carbamazepine]
[1]; Table 11, repeat dose
  Elimination Half-life: 12 to 17 h (repeat dose)
[1]; Table 11, single dose
  Elimination Half-life (hours): 25-65 hours (single does),

## CC[C@H]1OC(=O)[C@H](C)[C@@H](O[C@H]2C[C@@](C)(OC)[C@@H](O)[C@H](C)O2)[C@H](C)[C@@H](O[C@@H]2O[C@H](C)C[C@H](N(C)C)[C@H]2O)[C@](C)(OC)C[C@@H](C)C(=O)[C@H](C)[C@@H](O)[C@]1(C)O [Clarithromycin]
[1]; [3]
  Elimination Half-life: 3 to 7 h

## COC(=O)[C@H](c1ccccc1Cl)N1CCc2sccc2C1 [Clopidogrel]
[1]; [4]
  Elimination Half-life: 6 h

## COc1ccc([C@@H]2Sc3ccccc3N(CCN(C)C)C(=O)[C@@H]2OC(C)=O)cc1 [Diltiazem]
[1]; [3]
  Elimination Half-life: 3 to 4 h

## Cc1ccc(C)c(OCCCC(C)(C)C(=O)O)c1 [Gemfibrozil]
[1]; [4]
  Elimination Half-life: 1 to 2 h

## CCC(C)n1ncn(-c2ccc(N3CCN(c4ccc(OCC5COC(Cn6cncn6)(c6ccc(Cl)cc6Cl)O5)cc4)CC3)cc2)c1=O (centres unmarked) [Itraconazole]
[1]; Table 11, repeat dose
  Elimination Half-life: 34 to 42 h (repeat dose)
[1]; Table 11, single dose
  Elimination Half-life (hours): 16-28 hours (single dose),

## CC(=O)N1CCN(c2ccc(OCC3COC(Cn4ccnc4)(c4ccc(Cl)cc4Cl)O3)cc2)CC1 (centres unmarked) [Ketoconazole (systemic), Ketoconazole]
[1]; [3]
  Elimination Half-life: 2 to 8 h

## CC(C)(O)c1ccccc1CC[C@@H](SCC1(CC(=O)O)CC1)c1cccc(/C=C/c2ccc3ccc(Cl)cc3n2)c1 [Montelukast]
[1]; [4]
  Elimination Half-life: 3 to 6 h

## CCc1nn(CCCN2CCN(c3cccc(Cl)c3)CC2)c(=O)n1CCOc1ccccc1 [Nefazodone]
[1]; [3]
  Elimination Half-life: 2 to 4 h

## O=C1NC(=O)C(c2ccccc2)(c2ccccc2)N1 [Phenytoin]
[1]; [3]
  Elimination Half-life: 7 to 42 h

## CC[C@@H]([C@H](C)O)n1ncn(-c2ccc(N3CCN(c4ccc(OC[C@@H]5CO[C@@](Cn6cncn6)(c6ccc(F)cc6F)C5)cc4)CC3)cc2)c1=O [Posoconazole]
[1]; [3]
  Elimination Half-life: 27 to 35 h

## COc1cc(Cc2cnc(N)nc2N)cc(OC)c1OC [Trimethoprim]
[1]; [4]
  Elimination Half-life: 8 to 12 h

## C[C@@H](c1ncncc1F)[C@](O)(Cn1cncn1)c1ccc(F)cc1F [Voriconazole]
[1]; [3]
  Elimination Half-life (hours): Dose dependent

## Cc1cc(Nc2ncnc3ccc(NC4=NC(C)(C)CO4)cc23)ccc1Oc1ccn2ncnc2c1 [tucatinib]
[2]
  Adverse findings reported in earlier tucatinib studies: rare reports of asymptomatic cardiac failure; also recorded: Grade 3 and 4 elevation of LFTs had been seen in some patients

## Troleanomycin
[1]; [3]
  Elimination Half-life: 2 h
